Source: article PMC5994430, “Mitochondrial Delivery of Phenol Substructure Triggers Mitochondrial Depolarization and Apoptosis of Cancer Cells” (Frontiers in Pharmacology, 2018)

Assays:
Format in all cases: cell-based, Human
[1] = system: mitofusin 1 (MFN1) and mitofusin 2 (MFN2); experiment: qRT-PCR of mitofusin mRNA in A549 cells; conditions: 0.1 μM, 4 h
Protocol: (§1) Supplementary Figure 4 Effects of TPP-derivatives on mitofusin 1 and mitofusin 2 expression.
(§2) A549 and BEAS-2B cells were incubated 4 h in fresh medium (ctrl) or with 0.1 µM of 1 and 2.
(§3) Expression of mitofusin 1 (MFN1) and mitofusin 2 (MFN2) mRNA was evaluated by qRT-PCR in
(§4) triplicates. Data are means ± SD (n=3).
(§5) (1 picture or pasted object on this page, not shown here)

[2] = system: mitofusin 1 (MFN1) and mitofusin 2 (MFN2); experiment: qRT-PCR of mitofusin mRNA in BEAS-2B cells; conditions: 0.1 μM, 4 h
Protocol: as §1, §2, §3, §4, §5

U-2OS cells = experiment: Cell viability (neutral red), IC50; conditions: U-2OS osteosarcoma cells, CompuSyn
A549 cells = experiment: Extracellular LDH release; conditions: 0.1, 1 or 10 μM, 24 h
Protocol: (§6) The extracellular release of LDH, considered an index of cell damage and necrosis, was measured spectrophotometrically, as reported ([Riganti et al., 2013b]). The extracellular medium was centrifuged at 12,000 × g for 15 min to pellet cellular debris, the cells were washed with fresh medium, detached with 0.01% trypsin/EDTA, re-suspended in 0.2 ml of 82.3 mM triethanolamine phosphate-HCl (pH 7.6), and sonicated on ice with two 10-sec bursts. LDH activity was measured in the extracellular medium and in the cell lysate: 50 μl of extracellular medium or 5 μl of cell lysate were incubated at 37°C with 5 mM NADH. The reaction was started by adding 20 mM pyruvic acid and was monitored for 6 min, measuring absorbance at 340 nm using a Synergy HT Multi-Detection Microplate Reader (Bio-Tek Instruments, Winoosky, MT, United States). The reaction kinetics were linear throughout the time of measurement. Both intracellular and extracellular enzyme activities were expressed as μmol NADH oxidized/min/dish. The results were expressed as percentage of extracellular LDH versus total (intracellular plus extracellular) LDH. Cell viability was measured by the neutral red staining method, as previously reported ([Riganti et al., 2015b]). The absorbance of untreated cells was considered as 100% viability; the results were expressed as percentage of viable cells versus untreated cells. IC50 was calculated with the CompuSyn software^1.
(§7) Supplementary Figure 3. Cytotoxic effects of compound 15 and 16. A549 and BEAS-2B cells were grown in fresh medium (0) or incubated with 0.1, 1 or 10 µM of 15 and 16 for 24 h (panel A) or 72 h (panel B). A. The release of LDH was measured spectrophotometrically in duplicates. Data are means ± SD (n=3). B. Cell viability was measured spectrophotometrically in quadruplicates. Data are […]
as §5

BEAS-2B cells = experiment: Extracellular LDH release; conditions: 0.1, 1 or 10 μM, 24 h
Protocol: as §6, §7, §5

| Compound | expression of mitofusin 1 (MFN1) and mitofusin 2 (MFN2) [1] | expression of mitofusin 1 (MFN1) and mitofusin 2 (MFN2) [2] | IC50 (U-2OS cells; Homo sapiens, U2OS) [nM] | IC50 (U-2OS cells) [nM] | release of LDH (A549 cells) | release of LDH (BEAS-2B cells) |
| --- | --- | --- | --- | --- | --- | --- |
| CC(=O)Oc1ccc(C[P+](c2ccccc2)(c2ccccc2)c2ccccc2)cc1.[Br-] [Compound 1] | no changes | no changes |  |  |  |  |
| O=C(Oc1ccc(C[P+](c2ccccc2)(c2ccccc2)c2ccccc2)cc1C(F)(F)F)c1ccccc1.[Br-] [Compound 2] | no changes | no changes | < 1000 | 630 ± 100 |  |  |
| Oc1ccc(C[P+](c2ccccc2)(c2ccccc2)c2ccccc2)cc1.[Br-] [Compound 15] |  |  |  |  | did not increase the release of LDH | did not increase the release of LDH |
| Oc1ccc(C[P+](c2ccccc2)(c2ccccc2)c2ccccc2)cc1C(F)(F)F.[Br-] [Compound 16] |  |  |  |  | did not increase the release of LDH | did not increase the release of LDH |
